# Measurements published in the SangsterLogP compilation.
# How the values were obtained:
# [1] = method code SF-GLC, from DOI: 10.1016/j.chemosphere.2005.05.003, PMID: 15967478
# [2] = method code SF-GLC, from DOI: 10.1016/0045-6535(95)00311-u
# [3] = method code SF-AS, from DOI: 10.1021/jm010817i, PMID: 11806714; conditions: pH 7.4
# [4] = method code SF-HPLC, from DOI: 10.1016/s0928-0987(98)00030-x, PMID: 9845810; conditions: pH 7.4
# [5] = method code SF, from DOI: 10.1016/s0021-9673(01)84246-1
# [6] = method code SF, from Ganellin, C. R., & Durant, G. J. (1981). Histamine H2-receptor agonists and antagonists. Burgers Medicinal Chemistry, 3, 487-552.; conditions: pH 9.2
# [7] = method code SF-RC, from DOI: 10.1016/j.nucmedbio.2011.07.009, PMID: 21958846; conditions: pH 7.4
# [8] = not given; remark: listed apart in the source
# [9] = method code SF-AS, from DOI: 10.1016/0005-2744(69)90103-x, PMID: 4387594
# [10] = not given; remark: listed apart in the source
# [11] = method code SF-AS, from DOI: 10.1007/s001280000002, PMID: 10757653
# [12] = method code SF, from DOI: 10.1055/s-0038-1624171, PMID: 6548017; conditions: pH 7.4
# [13] = method code SF-HPLC, from DOI: 10.1002/hlca.19880710534; conditions: pH 7.4
# [14] = method code SF, from DOI: 10.1016/0378-5173(87)90234-1; conditions: pH 4.0
# [15] = method code SF-AS, from PMID: 1705424; conditions: pH 7.4
# [16] = method code SF-AS, from DOI: 10.1016/s0006-2952(02)01074-2, PMID: 12392818; conditions: pH 7.4
# [17] = method code SF-AS, from DOI: 10.1007/s00044-012-0399-x
# [18] = method code SF-AS, from DOI: 10.1021/jm00154a021, PMID: 3959031; conditions: pH 9.0
# [19] = method code SF-HPLC, from DOI: 10.1002/jps.2600841008, PMID: 8801331; conditions: pH 3.1
# [20] = method code SF-AS, from DOI: 10.1002/jps.2600650731; conditions: pH 11.5
# [21] = method code SF-RC, from DOI: 10.1182/blood.v76.11.2389.bloodjournal76112389, PMID: 2257308; conditions: pH 7.4
# [22] = method code SF-AS, from DOI: 10.1111/j.2042-7158.1980.tb13082.x, PMID: 6110743
# [23] = method code SF-AS, from Dai, Y.; Jiang, J.; Wang, Z.; Xue, Q. (2007). Experimental and QPSR studies on octanol-water partition coefficient of substituted anilines. J. Struct. Chem, 26(12)1449-1454.
# [24] = not given; remark: listed apart in the source
# [25] = method code SF-HPLC, from DOI: 10.1016/0006-2952(84)90322-8, PMID: 6704182
# [26] = method code SF, from Zhuang, J.; Mo, H.; An, F.; Yang, K. (1993). Determination of the water solubility and n-octanol/water partition coefficient of pesticide N-(2,4-dimethylphenyl)-N'-methylamidine. Huanjing Huaxue, …
# [27] = not given; remark: listed apart in the source
# [28] = not given; remark: listed apart in the source
# [29] = method code SF-AS, from DOI: 10.1002/jps.2600711105; conditions: pH 7.4
# [30] = method code SF-TN, from DOI: 10.1002/ardp.19763091008, PMID: 1008678
# [31] = pH 9.2
# [32] = method code SF, from DOI: 10.1093/jnci/60.2.345, PMID: 621753
# [33] = method code G-HPLC, from DOI: 10.1016/s0021-9673(01)94303-1
# [34] = not given; remark: listed apart in the source
# [35] = method code SF-AS, from DOI: 10.1021/jm00162a004, PMID: 3023612
# [36] = method code SF-GLC,AS, from DOI: 10.2134/jeq1981.00472425001000030028x
# [37] = method code SF-RC, from PMID: 3382460; conditions: pH 7.0
# [38] = method code SF-RC, from DOI: 10.1016/j.nucmedbio.2007.06.005, PMID: 17707813; conditions: pH 7.4
# [39] = method code SF-AS, from DOI: 10.1016/s0021-9673(03)00617-4, PMID: 12830921
# [40] = method code SF, from DOI: 10.1016/0006-291x(88)90214-8; conditions: pH 7.4
# [41] = not given; remark: listed apart in the source
# [42] = method code SF-RC, from DOI: 10.1002/jlcr.2580210110; conditions: pH 7.4
# [43] = method code SF-HPLC, from DOI: 10.1021/js970451q, PMID: 9687340; conditions: pH 6.0
# [44] = method code SF-HPLC, from DOI: 10.1002/jps.10112, PMID: 12115830; conditions: pH 7.4
# [45] = method code SF-RC, from DOI: 10.1023/a:1015825912542, PMID: 1808606; conditions: pH 7.2
# [46] = not given; remark: listed apart in the source
# [47] = not given; remark: listed apart in the source
compound,measurement,setting,value
CC1=CCC(C(C)C)C=C1 (stereo not drawn),logP,[1],4.58
CC(C)NCC(O)c1ccc(Cl)c(Cl)c1 (stereo not drawn),logP,,3.32
CCCCCCCCCC(Cl)(Cl)Cl,logP,[2],5.85
CC(=O)NCc1c(O)c(=O)cc(C)n1C,logD,[3],-0.82
Cc1ccc2c(c1)C(=O)N(CCO[N+](=O)[O-])CO2,logD,[4],2.41
Nc1nc2c(ncn2[C@@H]2O[C@H](CO)[C@@H](O)[C@H]2O)c(=O)[nH]1,logP,[5],-1.85
CNC(=S)NCCCCc1nc[nH]c1C,logD,[6],0.85
Cc1c(CC(CO)CF)n(C)c(=O)[nH]c1=O (stereo not drawn),logD,[7],-0.56
CC(C)c1ccc(CO)cc1,logP,[8],2.49
CCCCNc1ccccc1,logP,[9],3.58
Cc1ccc(C(C)C)cc1,logP,[10],4.14
CCOC(=O)c1cccc(C(=O)OCC)n1,logP,[11],3
O=[N+]([O-])c1nccn1CCOc1ccc(I)cc1,logD,[12],2.84
C=CCC1(CC(C)O)C(=O)NC(=O)NC1=O (stereo not drawn),logD,[13],-0.01
O=C(c1ccccc1)n1c(=O)[nH]cc(F)c1=O,logD,[14],0.8
CC(C)Cn1cnc2c1c(=O)n(C)c(=O)n2C,logD,[15],1.28
CC(=O)c1cc2ccccc2oc1=O,logD,[16],1.5
COC(=O)CN1Cc2ccccc2C1,logP,[17],-0.03
CN1CCN(CCn2cncc2[N+](=O)[O-])CC1,logD,[18],-0.2
O=C(O)CCCCc1ccccc1,logD,[19],2.73
CC/N=C(N)/N=C(\N)Nc1ccc(Cl)cc1,logD,[20],2.14
CCc1c(O)c(=O)ccn1CCOC,logD,[21],-0.08
CCCCOc1cccc(O)c1,logP,[22],3.03
CCN(CC)c1ccccc1,logP,[23],3.11
O=C(O)c1cccc2ccccc12,logP,[24],2.78
CC(=O)Nc1ccn([C@@H]2O[C@H](CO)[C@@H](O)[C@@H]2O)c(=O)n1,logP,[25],-1.35
CNC=Nc1ccc(C)cc1C,logP,[26],2.92
OC1(c2ccc(Cl)cc2)CCNCC1,logP,[27],1.98
Cc1cnc2n(c1=O)CCCC2C (stereo not drawn),logP,[28],0.69
COCC(O)Cn1c([N+](=O)[O-])nc(C(C)=O)c1C (stereo not drawn),logD,[29],0.03
CCNC(=O)C1C2CC3C(OC(=O)C31)C2O (stereo not drawn),logP,[30],-0.35
CN(C)CNC(=O)c1ccccc1,logD,[31],0.85
O=NN(CCCl)C(=O)NCCCCNC(=O)N(CCCl)N=O,logP,[32],0.9
CCCCc1ccccc1,logP,[33],4.29
CCC(C)C1(CC)C(=O)NC(=O)NC1=O (stereo not drawn),logP,[34],1.58
CCCC1(CCC)CCC=[N+]1[O-],logP,[35],0.69
CCN(CC)c1nc(Cl)nc(NC(C)C)n1,logP,[36],3.94
CNC(=O)OC1OC(=O)C2C3C=CC(C3)C12 (stereo not drawn),logD,[37],0.63
Nc1nc(F)c2ncn(CCC(CO)CO)c2n1,logD,[38],-0.52
CCc1c(C)nc2ccccn2c1=O,logP,[39],1.58
Cc1cn([C@H]2CC[C@@H](CO)O2)c(=O)[nH]c1=O,logD,[40],-0.7
C1COC(NC(C2CC2)C2CC2)=N1,logP,[41],1.63
C1C2CC3CC1CC(C2)C3,logD,[42],5.2
COc1cc(C)nc(-n2nc(C)cc2OC)n1,logD,[43],1.35
CC(SSc1ncc[nH]1)c1ccccc1 (stereo not drawn),logD,[44],3.39
CC(=O)NC(Cc1ccccc1)C(N)=O (stereo not drawn),logD,[45],0.05
CC1(C)CC(C(=O)O)CC(C)(C)N1O,logP,[46],1.25
CC(=O)c1ccc(C(C)C)cc1,logP,[47],2.98
